# According to patent publication US20240131027A1, “PHARMACEUTICAL COMPOSITION COMPRISING NOVEL SD911 COMPOUND AS ACTIVE INGREDIENT FOR PREVENTION OR TREATMENT OF TRANSPLANT REJECTION” (THE CATHOLIC UNIVERSITY OF KOREA INDUSTRY-ACADEMIC …, priority 2021, published 2024):
# How the values were obtained:
# [1] = test system: CD4+T (CD4+), subtype of human immune cells; test: CD4 positive cell infiltration in renal tissue by immunohistochemical staining, kidney transplantation rejection model; type: in vivo; settings: 300 μg/mice, group injected with PBMCs of patients with kidney transplantation rejection, FIGS. 9A and 9B
# Procedure: (§1) In order to produce a kidney transplantation rejection model, peripheral blood mononuclear cells (PBMCs) derived from transplantation rejection patients (kidney transplantation rejection patients) were intravascularly injected at a cell concentration of 5×10^6/mice, and then after 3 weeks, engraftment of transplantation rejection patient cells in the blood was confirmed, and a kidney transplantation rejection model was constructed. As a control group, normal human PBMCs were injected (FIG. 6).
# (§2) At 3 weeks after PBMC administration to the kidney transplantation rejection model prepared in Example 4-1, the mice were treated with physiological saline (vehicle) and SD911 (300 μg/mice) and sacrificed at 4 weeks and then the kidneys of the mice were extracted.
# (§3) Immunohistochemical staining was performed to confirm whether CD4+T (CD4+), subtype of human immune cells, has been infiltrated in the renal tissue extracted in Example 4-2. The extracted tissue was fixed with formalin, and then embedded in paraffin to generate slices with a thickness of 5 μm. In order to observe immune cells in the tissue, immunohistochemical analysis was performed by reacting with a human CD4 antibody on the slice slide.
# [2] = test system: T cell subtypes (Th1, Th2, Th17, Treg); test: T cell subtype analysis by flow cytometry of spleen immune cells in skin transplantation model; type: in vivo; settings: 200 μg/mice, spleen after 5 days, compared to control group
# Description: (§4) In order to confirm A therapeutic effect of SD911 of the present invention on transplantation rejection, an allogenic skin transplantation animal model was used. Specifically, as the allogenic skin transplantation animal model, the tail skins of male donor […] mice (Orient Bio Inc.) were exfoliated and transplanted onto the back skins of male recipient BALB/c mice (Orient Bio Inc.). One day before transplant, the recipient mice were divided into two groups, a control group (Saline group) administered intraperitoneally with physiological saline, and an experimental group (SD911 group) administered with SD911 at a concentration of 200 μg/mice.
# Some of the recipient mice that had undergone the skin transplant were humanely sacrificed after 5 days, the spleens were extracted, and immune cells were isolated from the spleens. In order to analyze T cell subtypes in the isolated immune cells, flow cytometry was performed, and to identify pro-inflammatory T cells, the number of CD4+, IFN+, IL4+ and IL17+ positive cells was analyzed. In addition, regulatory T cells (Treg) were identified as CD4+CD25+Foxp3+ positive cells.
# [3] = test system: kidney transplantation rejection model; test: Cell infiltration and kidney damage (H&E) in kidney transplantation rejection model; type: in vivo; settings: 300 μg/mice, compared with the vehicle group, FIGS. 8A and 8B
# Procedure: as §1, with “6). At 3 weeks after PBMC administration to the kidney transplantation rejection model prepared in Example 4-1, the mice were treated with physiological saline (vehicle) and SD911 (300 μg/mice) and sacrificed at 4 weeks and then the kidneys of the mice were extracted.” for “6).”
# [4] = test system: allogenic skin transplantation animal model; test: Skin transplant viability in allogenic skin transplantation animal model; type: in vivo; settings: 200 μg/mice
# Description: as §4
# The skin changes of the control group or the experimental group (SD911 group) treated with SD911 at a concentration of 200 μg/mice were observed daily, and the viability was calculated by calculating the rejection when scab formation or skin atrophy of 70% or more occurred on the transplanted skin. A drug administration schedule was illustrated in FIG. 2A.
# [5] = test system: human leukocyte antigen (HLA); test: HLA inhibition in IFNγ-treated kidney organoids (in vitro rejection model); type: cell-based; settings: 50 μM SD911; kidney organoids from WTC-11 iPSC treated with IFNγ; FIG. 4
# Procedure: (§5) WTC-11 cells, standard normal human induced pluripotent stem cells (iPSC) were differentiated into kidney organoids and treated with IFNγ, a cytokine known to induce transplantation rejection to construct an in vitro rejection model increasing human leukocyte antigen (HLA). Thereafter, the constructed kidney organoids were treated with 50 μM of SD911.
# [6] = test system: immune cells isolated from the spleens of normal C57/BL6 mice; test: Suppression of SDF1-induced migration of spleen immune cells in trans wells; type: cell-based; settings: SD911 20 μM; SDF1 20 ng/ml in lower compartment; FIGS. 1A and 1B
# Procedure: The present inventors screened a novel compound SD911 by using activity inhibition analysis of inflammatory cytokines in immune cells of a sphingosin 1-phosphate lyase (SPL) inhibitor, and tried to confirm an immune cell migration inhibitory effect of the screened SD911. Specifically, single cells (immune cells) were isolated from the spleens of normal C57/BL6 mice, and the isolated immune cells were cultured in […] trans wells (upper compartment). For migration of the cultured immune cells, stromal cell-derived factor 1 (SDF1) was treated at a concentration of 20 ng/ml to stimulate the lower compartment. The immune cells moved to the lower compartment by stromal cell-derived factor 1 (SDF1), and at this time, whether the migration was inhibited by SD911 was analyzed.
# kidney organoids = test: Flow cytometry of nephron marker double positive cells in cytokine-treated kidney organoids; type: cell-based, human; settings: SD911 50 μg/mL; TNF-α and INFγ treated kidney organoids; FIGS. 5A to 5F
# Procedure: as §5
# In the kidney organoids prepared in Example 3-1, when treated with the cytokines TNF-α and INFγ and when treated with SD911 at a concentration of 50 μg/mL, changes in cell patterns were analyzed by flow cytometry. Specifically, the patterns of nephron markers PODXL, LTL, ECAD and double positive cells in kidney organoids were analyzed.
# IL-17 = IL-17 positive cell infiltration in renal tissue by immunohistochemical staining, kidney transplantation rejection model; type: in vivo; settings: 300 μg/mice, group injected with PBMCs of patients with kidney transplantation rejection, FIGS. 10A and 10B
# Procedure: as §1, §2
# as §3, with “whether IL-17, an inflammatory cytokine,” for “whether CD4+T (CD4+), subtype of human immune cells,”, “infiltrated into” for “infiltrated in”, “human IL-17” for “human CD4”
smiles,measurement,setting,value
"C[C@@H]1CN(c2nnc(Oc3ccccc3)c3ccccc23)CCN1c1ccc(C#N)cn1 [SD911, 6-((R)-2-methyl-4-(1-phenoxyphthalazin-4-yl)piperazin-1-yl)pyridine-3-carbonitrile]",infiltration of CD4-positive cells,[1],significantly reduced
same,number of Th1 cells,[2]; FIG. 3A,significantly decreased
same,number of Th2 cells,[2]; FIG. 3B,significantly decreased
same,number of Th17 cells,[2]; FIG. 3C,significantly decreased
same,Treg (CD4+CD25+Foxp3+ positive cells),[2]; FIG. 3D,increased
same,kidney damage,[3],suppressed
same,human PBMC infiltration,[3]; glomerulus,suppressed
same,viability of the transplanted skin,"[4]; compared to control (Saline) group, FIG. 2B",significantly increased
same,survival time of the transplanted skin,"[4]; compared to control group, FIG. 2C",significantly increased
same,HLA increased by IFNγ,[5],suppressed
same,migration of immune cells induced by SDF1,[6],blocked
same,"positive cell ratio of the nephron marker (PODXL, LTL, ECAD double positive cells)",kidney organoids,significantly decreased
same,infiltration of IL-17-positive cells,IL-17,significantly reduced
